Source: patent US20100105655A1, “NOVEL COMPOUNDS 515” (ASTRAZENECA AB, priority 2008, published 2010)

Target: T1, IGFR kinase (Homo sapiens, UniProt P08069)
T1 construct: purchased Millipore
Test: Enzyme assay (c), IGFR kinase, Caliper LabChip
Type: biochemical
Settings: 30 nM IGFR kinase, 6 uM ATP, 3 uM peptide mix; read-out: IGFR IC50

T1 sequence (P08069 31-1367): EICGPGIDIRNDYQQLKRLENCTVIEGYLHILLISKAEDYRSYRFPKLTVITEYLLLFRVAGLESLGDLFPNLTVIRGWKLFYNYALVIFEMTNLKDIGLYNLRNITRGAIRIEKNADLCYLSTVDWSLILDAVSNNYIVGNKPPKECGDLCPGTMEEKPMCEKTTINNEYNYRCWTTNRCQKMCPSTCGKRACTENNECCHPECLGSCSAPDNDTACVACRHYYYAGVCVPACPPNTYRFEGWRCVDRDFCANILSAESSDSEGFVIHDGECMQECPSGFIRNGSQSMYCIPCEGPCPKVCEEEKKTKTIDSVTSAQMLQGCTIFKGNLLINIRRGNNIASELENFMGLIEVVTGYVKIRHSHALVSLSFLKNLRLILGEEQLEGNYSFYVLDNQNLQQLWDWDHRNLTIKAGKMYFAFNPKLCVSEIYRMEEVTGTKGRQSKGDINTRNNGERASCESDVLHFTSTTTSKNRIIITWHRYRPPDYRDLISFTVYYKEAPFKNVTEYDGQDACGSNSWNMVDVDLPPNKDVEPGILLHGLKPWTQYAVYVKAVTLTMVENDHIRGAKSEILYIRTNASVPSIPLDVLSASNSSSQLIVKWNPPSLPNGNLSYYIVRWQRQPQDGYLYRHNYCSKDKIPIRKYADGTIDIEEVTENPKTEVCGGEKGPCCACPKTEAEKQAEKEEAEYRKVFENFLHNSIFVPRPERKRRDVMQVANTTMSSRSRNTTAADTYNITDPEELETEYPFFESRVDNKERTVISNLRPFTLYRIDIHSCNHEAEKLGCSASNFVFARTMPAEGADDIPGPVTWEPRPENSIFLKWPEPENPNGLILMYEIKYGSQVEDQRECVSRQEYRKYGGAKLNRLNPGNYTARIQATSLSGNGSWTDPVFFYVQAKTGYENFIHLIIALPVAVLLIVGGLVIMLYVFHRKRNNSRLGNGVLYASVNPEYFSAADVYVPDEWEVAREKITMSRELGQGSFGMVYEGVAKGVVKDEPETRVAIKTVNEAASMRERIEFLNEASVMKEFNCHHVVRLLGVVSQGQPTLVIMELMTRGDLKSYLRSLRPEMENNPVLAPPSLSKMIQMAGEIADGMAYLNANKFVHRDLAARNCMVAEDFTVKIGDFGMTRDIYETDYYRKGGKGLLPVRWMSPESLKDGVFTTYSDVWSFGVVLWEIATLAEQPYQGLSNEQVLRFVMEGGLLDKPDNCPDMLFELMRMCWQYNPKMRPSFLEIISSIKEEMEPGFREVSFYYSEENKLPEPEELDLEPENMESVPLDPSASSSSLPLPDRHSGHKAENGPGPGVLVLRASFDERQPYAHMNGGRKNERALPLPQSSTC

Row | SMILES | IC50 [nM]
1 | CNCC(=O)N1CCN(c2ccc(OC)c(Nc3ncc(C)c(-c4cnn5ccccc45)n3)c2)CC1 [Example 167, 1-[4-[4-methoxy-3-[(5-methyl-4-pyrazolo[1,5-a]pyridin-3-yl-pyrimidin-2-yl)amino]phenyl]piperazin-1-yl]-2-(methylamino)ethanone] | 49
2 | COc1cc(N2CC3CN(C)CC(C2)O3)ccc1Nc1ncc(Cl)c(-c2cnc3c(F)cccn23)n1 [Example 203, 5-chloro-4-(8-fluoroimidazo[1,2-a]pyridin-3-yl)-N-[2-methoxy-4-(7-methyl-9-oxa-3,7-diazabicyclo[3.3.1]nonan-3-yl)phenyl]pyrimidin-2-amine] | 9
3 | COc1cc(OC2CCN(C)C2)ccc1Nc1ncc(Br)c(-c2cnc3ccccn23)n1 (centres unmarked) [Example 123, 5-bromo-4-imidazo[1,2-a]pyridin-3-yl-N-[2-methoxy-4-(1-methylpyrrolidin-3-yl)oxy-phenyl]pyrimidin-2-amine] | 5
4 | CCN1CCN(c2ccc(Nc3ncc(F)c(-c4cnc5ccccn45)n3)c(OC)c2)CC1 [Example 120, N-[4-(4-ethylpiperazin-1-yl)-2-methoxyphenyl]-5-fluoro-4-imidazo[1,2-a]pyridin-3-ylpyrimidin-2-amine] | 128
5 | COc1cc(N2CCN(CCO)CC2)ccc1Nc1ncc(Cl)c(-c2cnn3ccccc23)n1 [Example 134, 2-[4-[4-[(5-chloro-4-pyrazolo[1,5-a]pyridin-3-yl-pyrimidin-2-yl)amino]-3-methoxy-phenyl]piperazin-1-yl]ethanol] | 5
6 | COc1cc(C2CCN(C(=O)N(C)CCO)CC2)ccc1Nc1ncc(Cl)c(-c2cnc3ccccn23)n1 [Example 58, 4-[4-[(5-chloro-4-imidazo[1,2-a]pyridin-3-yl-pyrimidin-2-yl)amino]-3-methoxy-phenyl]-N-(2-hydroxyethyl)-N-methyl-piperidine-1-carboxamide] | 6
7 | COc1cc(OC[C@H]2CCCN2)ccc1Nc1ncc(F)c(-c2cnc3ccccn23)n1 [Example 87, 5-fluoro-4-imidazo[1,2-a]pyridin-3-yl-N-[2-methoxy-4-[[(2R)-pyrrolidin-2-yl]methoxy]phenyl]pyrimidin-2-amine] | 65
8 | COc1cc(N2CCN(CC(=O)N(C)CCO)CC2)ccc1Nc1ncc(Cl)c(-c2cnc3ccccn23)n1 [Example 67, 2-[4-[4-[(5-chloro-4-imidazo[1,2-a]pyridin-3-yl-pyrimidin-2-yl)amino]-3-methoxy-phenyl]piperazin-1-yl]-N-(2-hydroxyethyl)-N-methyl-acetamide] | 7
9 | COc1cc(N2CCN(C(=O)[C@@H](C)O)CC2)ccc1Nc1ncc(Cl)c(-c2cnc3cc(C)ccn23)n1 [Example 257, (2R)-1-[4-[4-[[5-chloro-4-(7-methylimidazo[1,2-a]pyridin-3-yl)pyrimidin-2-yl]amino]-3-methoxy-phenyl]piperazin-1-yl]-2-hydroxy-propan-1-one] | 10
10 | COc1cc(C2CCNCC2)ccc1Nc1ncc(Cl)c(-c2cnc3ccc(F)cn23)n1 [Example 247, 5-chloro-4-(6-fluoroimidazo[1,2-a]pyridin-3-yl)-N-[2-methoxy-4-(4-piperidyl)phenyl]pyrimidin-2-amine] | 3
11 | COc1cc(N2CC3CN(C(=O)[C@@H](C)O)CC(C2)O3)ccc1Nc1ncc(Cl)c(-c2cnc3c(F)cccn23)n1 [Example 214, (2R)-1-[3-[4-[[5-chloro-4-(8-fluoroimidazo[1,2-a]pyridin-3-yl)pyrimidin-2-yl]amino]-3-methoxy-phenyl]-9-oxa-3,7-diazabicyclo[3.3.1]nonan-7-yl]-2-hydroxy-propan-1-one] | 18
12 | COc1cc(N2CCNC(=O)C2)ccc1Nc1ncc(F)c(-c2cnc3ccccn23)n1 [Example 88, 4-[4-[(5-fluoro-4-imidazo[1,2-a]pyridin-3-yl-pyrimidin-2-yl)amino]-3-methoxy-phenyl]piperazin-2-one] | 23
13 | COc1cc(N2CC3CN(CCO)CC(C2)O3)ccc1Nc1ncc(Cl)c(-c2cnn3ccccc23)n1 [Example 150, 2-[7-[4-[(5-chloro-4-pyrazolo[1,5-a]pyridin-3-yl-pyrimidin-2-yl)amino]-3-methoxy-phenyl]-9-oxa-3,7-diazabicyclo[3.3.1]nonan-3-yl]ethanol] | 5
14 | COc1cc(N(C)CCN(C)CCO)ccc1Nc1ncc(Cl)c(-c2cnc3c(F)cccn23)n1 [Example 221, 2-[2-[4-[[5-chloro-4-(8-fluoroimidazo[1,2-a]pyridin-3-yl)pyrimidin-2-yl]amino]-3-methoxy-N-methyl-anilino]ethyl-methyl-amino]ethanol] | 10
15 | COc1cc(N2CCN(C(=O)CO)CC2)ccc1Nc1ncc(Cl)c(-c2cnc3c(F)cccn23)n1 [Example 180, 1-[4-[4-[[5-chloro-4-(8-fluoroimidazo[1,2-a]pyridin-3-yl)pyrimidin-2-yl]amino]-3-methoxy-phenyl]piperazin-1-yl]-2-hydroxy-ethanone] | 25
16 | COc1cc(N2CC3CN(CCO)CC(C2)O3)ccc1Nc1ncc(C)c(-c2cnc3ccccn23)n1 [Example 232, 2-[7-[4-[(4-imidazo[1,2-a]pyridin-3-yl-5-methyl-pyrimidin-2-yl)amino]-3-methoxy-phenyl]-9-oxa-3,7-diazabicyclo[3.3.1]nonan-3-yl]ethanol] | 23
17 | COc1cc(N2CC3CN(CCS(C)(=O)=O)CC(C2)O3)ccc1Nc1ncc(Cl)c(-c2cnc3c(F)cccn23)n1 [Example 207, 5-chloro-4-(8-fluoroimidazo[1,2-a]pyridin-3-yl)-N-[2-methoxy-4-[3-(2-methylsulfonylethyl)-9-oxa-3,7-diazabicyclo[3.3.1]nonan-7-yl]phenyl]pyrimidin-2-amine] | 19
18 | COc1cc(N2C[C@@H]3C[C@H]2CN3C(C)=O)ccc1Nc1ncc(Cl)c(-c2cnn3ccccc23)n1 [Example 241, 1-[(1S,4S)-2-[4-[(5-chloro-4-pyrazolo[1,5-a]pyridin-3-yl-pyrimidin-2-yl)amino]-3-methoxy-phenyl]-2,5-diazabicyclo[2.2.1]heptan-5-yl]ethanone] | 36
19 | COc1cc(C2CCNCC2)ccc1Nc1ncc(F)c(-c2cnn3ccccc23)n1 [Example 173, 5-fluoro-N-[2-methoxy-4-(4-piperidyl)phenyl]-4-pyrazolo[1,5-a]pyridin-3-yl-pyrimidin-2-amine] | 10
20 | COc1cc(N2CCN(C(C)=O)CC2)ccc1Nc1ncc(OC)c(-c2cnc3ccccn23)n1 [Example 92, 1-[4-[4-[(4-imidazo[1,2-a]pyridin-3-yl-5-methoxy-pyrimidin-2-yl)amino]-3-methoxy-phenyl]piperazin-1-yl]ethanone] | 90
21 | COc1cc(N2CCN(C[C@@H](O)CO)CC2)ccc1Nc1ncc(Cl)c(-c2cnc3ccccn23)n1 [Example 53, (2R)-3-[4-[4-[(5-chloro-4-imidazo[1,2-a]pyridin-3-yl-pyrimidin-2-yl)amino]-3-methoxy-phenyl]piperazin-1-yl]propane-1,2-diol] | 8
22 | COc1cc(C2CCNCC2)ccc1Nc1ncc(C)c(-c2cnc3c(F)cccn23)n1 [Example 197, 4-(8-fluoroimidazo[1,2-a]pyridin-3-yl)-N-[2-methoxy-4-(4-piperidyl)phenyl]-5-methyl-pyrimidin-2-amine] | 13

Other lines, results leading:

Row | IC50 [nM] | SMILES
23 | 11 | COc1cc(N2CCN(S(=O)(=O)N(C)C)CC2)ccc1Nc1ncc(Cl)c(-c2cnc3ccccn23)n1 [Example 3.7, 4-[4-[(5-chloro-4-imidazo[1,2-a]pyridin-3-yl-pyrimidin-2-yl)amino]-3-methoxy-phenyl]-N,N-dimethyl-piperazine-1-sulfonamide]
24 | 20 | COc1cc(N2CC(C)NC(C)C2)ccc1Nc1ncc(Cl)c(-c2cnc3ccccn23)n1 (centres unmarked) [Example 3.6, 5-chloro-N-[4-(3,5-dimethylpiperazin-1-yl)-2-methoxy-phenyl]-4-imidazo[1,2-a]pyridin-3-yl-pyrimidin-2-amine]
25 | 36 | COc1cc(O[C@H]2CCN(C(=O)[C@H](C)O)C2)ccc1Nc1ncc(Cl)c(-c2cnc3ccccn23)n1 [Example 15A, (2S)-1-[(3S)-3-[4-[(5-chloro-4-imidazo[1,2-a]pyridin-3-yl-pyrimidin-2-yl)amino]-3-methoxy-phenoxy]pyrrolidin-1-yl]-2-hydroxy-propan-1-one]
26 | 4 | COc1cc(C2CCN(C(=O)CO)CC2)ccc1Nc1ncc(Cl)c(-c2cnc3ccccn23)n1 [Example 28.5, 1-[4-[4-[(5-chloro-4-imidazo[1,2-a]pyridin-3-yl-pyrimidin-2-yl)amino]-3-methoxy-phenyl]-1-piperidyl]-2-hydroxy-ethanone]
27 | 32 | COCCN(C)Cc1ccc(Nc2ncc(Cl)c(-c3cnc4ccccn34)n2)c(OC)c1 [Example 21.13, 5-chloro-4-imidazo[1,2-a]pyridin-3-yl-N-[2-methoxy-4-[(2-methoxyethyl-methyl-amino)methyl]phenyl]pyrimidin-2-amine]
28 | 24 | COc1cc(CN2CCC[C@@H](O)C2)ccc1Nc1ncc(Cl)c(-c2cnc3ccccn23)n1 [Example 21.12, (3R)-1-[[4-[(5-chloro-4-imidazo[1,2-a]pyridin-3-yl-pyrimidin-2-yl)amino]-3-methoxy-phenyl]methyl]piperidin-3-ol]
29 | 17 | COc1cc(CN2CC[C@@H](O)C2)ccc1Nc1ncc(Cl)c(-c2cnc3ccccn23)n1 [Example 21.18, (3R)-1-[[4-[(5-chloro-4-imidazo[1,2-a]pyridin-3-yl-pyrimidin-2-yl)amino]-3-methoxy-phenyl]methyl]pyrrolidin-3-ol]
30 | 18 | COc1cc(N2CC[C@@H](NC(C)=O)C2)ccc1Nc1ncc(Cl)c(-c2cnc3ccccn23)n1 [Example 3.23, N-((3R)-1-(4-(5-chloro-4-(imidazo[1,2-a]pyridin-3-yl)pyrimidin-2-ylamino)-3-methoxyphenyl)pyrrolidin-3-yl)acetamide]
31 | 8 | COc1cc(C2CN(C(=O)[C@@H](C)O)C2)ccc1Nc1ncc(Cl)c(-c2cnn3ccccc23)n1 [Example 135B]
32 | 20 | COc1cc(CNCCCO)ccc1Nc1ncc(Cl)c(-c2cnc3ccccn23)n1 [Example 21.3, 3-[[4-[(5-chloro-4-imidazo[1,2-a]pyridin-3-yl-pyrimidin-2-yl)amino]-3-methoxy-phenyl]methylamino]propan-1-ol]
